This test relates to HeLa. Nature of the test: Cytotoxicity against human HeLa cells. The test is classed as functional, cell-based.

Four molecules from ChEMBL document CHEMBL1159220, “Additional dolabellane diterpenes from the Caribbean gorgonian octocoral Eunicea laciniata” (J Nat Prod, 1995) can be followed below.

The IC50 is the concentration needed to halve the response being measured. Higher therefore signals weaker potency.

Each structure is given as a SMILES string. Converted amounts (≈) assume the structure as drawn. A value given as a limit tells only on which side of the number the result lay.

On to `CC(C)=C1CC[C@@]2(C)C(=O)C[C@H](C)CC/C=C(\C)CC[C@H]12` [EDUNONE], for which it took 25 µg/mL (≈ 86.7 µM) to reach half-maximal inhibition (IC50).

`C/C1=C/C(=O)[C@]2(C)CC(=O)[C@H](C(C)C)[C@H]2CC/C(C)=C\CC1` [EDUDIONE] came in with a 50% inhibitory concentration (IC50) greater than 100 µg/mL.

In turn, `CC(C)=C1CC[C@@]2(C)C(=O)/C=C(/C)CC/C=C(/C)CC[C@H]12` [EDUENONE] yielded an IC50 of 50 µg/mL (≈ 175 µM).

The molecule `C=C(C)[C@@]1(O)CC[C@@]2(C)C/C=C(\C)CC/C=C(\C)CC[C@@H]21` [EDUNOL] registered an IC50 of 25 µg/mL (≈ 86.7 µM).
